# Test results taken from patent publication US20210308101A1, “METHODS OF TREATING FIBROMYALGIA” (Aptinyx Inc., priority 2019, published 2021).
# Legend:
# Assay type in all cases: in vivo, human
# [1] = system: subjects with fibromyalgia; test: QST: MAST pressure pain sensitivity at the thumbnail
# Text: (§1) The multi-modal automated sensory testing (MAST) system was used to measure localized pressure sensitivity at an asymptomatic, neutral body site, the thumbnail. The MAST system is a nonsignificant-risk investigational device that applies a computer-controlled mechanical stimulation at precisely controlled intensity levels and durations. The validity in the measurement of centrally-mediated pain sensitivity has been discussed extensively. The MAST system delivered an ascending series of computer-controlled, 5-second pressures at 20-second intervals (with 20% jitter) to the subject's thumbnail bed, beginning at 0.25 to 0.5 kg/cm^2 and increasing in steps of 0.25 to 0.50 kg/cm^2. Pain intensity was rated after each pressure on a 0 to 100 NRS. Testing was terminated when the first of 3 possible stop conditions were met: 1) subject reached her personal pain tolerance and requested to stop the test, 2) subject reported a pain intensity rating of >80, or 3) the maximum pressure of 10 kg/cm^2 was delivered. A regression model was used fit the stimulus-response data obtained from this procedure and interpolate Pain50, defined as the pressure intensity that evokes a moderate level of suprathreshold pressure pain (i.e., 50/100). Additional derived variables included: 1) Pressure pain threshold, defined as the first pressure in a series of at least 2 consecutive pressures that elicited a NRS pain rating >0; 2) slope of the stimulus-response function as a measure of the rate of pain increase; and 3) pressure pain tolerance, defined as the last pressure recorded in the stimulus response profile. These variables were used to determine the effect of drug and placebo treatments on pain sensitivity.
# (§2) QST data were analyzed at the University of Michigan CPFRC. Dependent variables were the MAST derived outcomes (Pain50, pressure pain threshold, pain tolerance, and pain ratings at 2 kg/cm2), algometry-derived pressure pain thresholds (mean of three trials) at each anatomical site, average cuff intensity ratings (mean of ratings at all stimulus levels during the ascending or random sequences), and average visual task unpleasantness and brightness intensity ratings (mean of ratings at all stimulus levels). Practice data were not analyzed. Overall pain intensity and unpleasantness NRS scores as well as stimulus response curves for each test were assessed during post hoc analyses. Data points displaying measurement artefacts, including device malfunction or user error, were set to missing. Single subject QST variables were analyzed using paired t-tests and/or nonparametric Wilcoxon signed-rank tests in SPSS or R.
# [2] = system: subjects with fibromyalgia; test: PROMIS Sleep Disturbance short form; conditions: not statistically significant
# Text: As used herein, the “PROMIS Sleep Disturbance” short form is Patient Reported Outcomes Measurement Information System Sleep Disturbance—Short Form. The PROMIS Sleep Disturbance short form version 1.0 8b is an 8-item instrument that assesses sleep disturbance in subjects 18 years and older. All 8 questions are based on a 5-point numerical rating scale/Likert scale ranging from 1 to 5 with different categorical responses. Lower scores represent a better quality of life. The total score was calculated by taking the sum of all 8 questions and ranged from 8 to 40. If at least 4 questions were answered, the total score was imputed if missing responses were present. The total score was multiplied by 8/(number of questions answered) and rounded off to the nearest whole number. Otherwise, the total score was set to missing.
# The PROMIS Sleep Disturbance short form assessment was collected and analyzed at visits Screening, Day 1, Week 2, Week 4, Week 6, and Follow-up (Week 7). The observed total score, changes from baseline, and changes from treatment periods were summarized using descriptive statistics. Additionally, the treatment group comparisons were analyzed using the paired t-test and nonparametric Wilcoxon signed-rank test. All PROMIS Sleep Disturbance short form data collected and the calculated total score at each visit were presented in a subject listing.
# [3] = system: subjects with fibromyalgia; test: QST: cuff algometry
# Procedure: Large volume, deep tissue pressure sensitivity was assessed by cuff algometry. Calibrated cuff pain stimuli were delivered to the gastrocnemius area of the lower leg using a validated MRI-compatible cuff pain device. This system included an air compressor, computerized pressure controller, and a 13.5 cm×82.5 cm Velcro-adjusted pressure cuff (similar to a blood pressure cuff). Subjects first received an ascending series of cuff pressures, starting at 20 mmHg and increasing in 20-mmHg steps (10- to 14-second duration pressures, 20-second interstimulus interval) to tolerance or a maximum of 400 mmHg. Each pressure was rated after deflation on a 0 to 100 NRS. These pain ratings were used to interpolate a series of 9 tolerable cuff pressures that were delivered in pseudo-randomized order and rated individually. […] Curves were constructed for each participant and used for analysis of drug and placebo effects. An abbreviated form of cuff algometry was performed during fMRI as an evoked pain stimulus.
# as §2
# [4] = system: subjects with fibromyalgia; test: Quantitative Sensory Testing, all outcomes
# Text: Other efficacy assessments, as used herein, include “Multi-Modal Automated Sensory Testing” (MAST) Pressure Pain Sensitivity, “Cuff Algometry,” and “Visual Stimulation Task.”
# as §1, with “These variables were used to determine the effect of drug and placebo treatments on pain sensitivity.” left out
# Localized pressure pain sensitivity was also measured bilaterally at 3 additional body regions: trapezius, wrist, and patella. […] Sensitivity was measured using a digital algometer with a 1-cm^2 flat rubber probe. […]
# Large volume, deep tissue pressure sensitivity was assessed by cuff algometry. […]
smiles,measurement,setting,value
"CC(C)C(=O)N1CCC[C@]12CN([C@H](C(N)=O)[C@@H](C)O)C2=O [NYX-2925, (2S, 3R)-3-hydroxy-2-((R)-5-isobutyryl-1-oxo-2,5-diazaspiro[3.4]octan-2-yl)butanamide]",MAST Pain50 threshold,"[1]; NYX-2925 20 mg relative to baseline, p=0.079",marginal decrease in threshold
same,pain thresholds of the MAST test,[1]; NYX-2925 200 mg,not significantly altered
same,rating of pain unpleasantness evoked by MAST testing,"[1]; NYX-2925 200 mg, baseline 50.00±24.24, p=0.038",42.14±19.34
same,rating of overall pain intensity evoked by MAST testing,"[1]; NYX-2925 200 mg, baseline 51.43±15.01, p=0.035",44.76±12.19 NRS units
same,"PROMIS Sleep Disturbance short form score, mean change",[2]; Week 2 (placebo) to Week 4 (NYX-2925 20 mg),−0.9
same,"PROMIS Sleep Disturbance short form score, mean change",[2]; Week 2 (placebo) to Week 6 (NYX-2925 200 mg),−1.6
same,mean pain intensity rating of the Cuff Random paradigm,"[3]; NYX-2925 20 mg relative to baseline, p=0.073",marginally reduced
same,Cuff Random Pain50 threshold,"[3]; NYX-2925 20 mg, baseline 151.89±110.64, p=0.031",193.00±128.16 mmHg
same,Cuff Random Pain50 threshold,"[3]; NYX-2925 200 mg, baseline 157.70±110.78, p=0.038",209.80±132.51 mmHg
same,cuff algometry procedure overall unpleasantness rating,"[3]; Week 7 follow-up, after cessation of NYX-2925, p=0.040 vs 200 mg",30.00±22.82
same,cuff algometry procedure overall unpleasantness rating,[3]; treatment with NYX-2925 200 mg (Week 6),25.00±19.15
same,effects on QST relative to placebo,[4]; NYX-2925 20 mg,no significant or marginal effects
same,differences on QST between doses,[4]; NYX-2925 20 mg versus NYX-2925 200 mg,no significant or marginal differences
same,"effects on QST outcomes relative to placebo, other than right trapezius threshold",[4]; NYX-2925 200 mg,no additional significant or marginal effects
